Our source for the IC50 and inhibition values is ChEMBL document CHEMBL1649413, “Structure-activity relationship of 4(5)-aryl-2-amino-1H-imidazoles, N1-substituted 2-aminoimidazoles and imidazo[1,2-a]pyrimidinium salts as inhibitors of biofilm formation by Salmonella typhimurium and Pseudomonas aeruginosa” (J Med Chem, 2011).

SMILES strings stand for the structures. pIC50: −log10 of the molar value. Activity calls are given as the source filed them. No cut-off for these calls is given here.

The first assay relates to Salmonella typhimurium. In words: Antibiofilm activity in Salmonella Typhimurium ATCC 14028 assessed as inhibition of biofilm formation at 25 degC after 24 hrs. In kind it is functional, organism-based, Salmonella enterica subsp. enterica serovar Typhimurium. The conditions noted are these: Salmonella enterica, ATCC 14028, 24 h.
Turning to `CCCCCCCC[n+]1c(-c2ccc(-c3ccc([N+](=O)[O-])cc3)cc2)cn2cccnc21.[O-][Cl+3]([O-])([O-])[O-]`, the pIC50 was 5.82.

Consider `CCCCCCCCn1c(-c2ccc([N+](=O)[O-])cc2)cnc1N`, for which the pIC50 was 4.45.

With `Nc1ncc(-c2ccccc2)n1C1CCC1`, the pIC50 is 3.93.

As for `CCCCCCn1c(-c2ccc(Cl)cc2)cnc1N`, the pIC50 is 5.31.

For the compound `CCCCCCCCn1c(-c2ccc(SC)cc2)cnc1N`, the pIC50 is 5.17.

In the case of `CCCCCCCCCCCCCn1c(-c2ccc(-c3ccccc3)cc2)cnc1N`, the pIC50 was below 3.10.

Regarding `CCCCCCCCCCCCn1c(-c2ccc(-c3ccccc3)cc2)cnc1N`, the negative logarithm of the IC50 (pIC50) is 3.78.

Regarding `CC(C)n1c(-c2ccccc2)cnc1N`, the pIC50 is 3.76.

As to `CCn1c(-c2ccc(Cl)cc2)cnc1N`, the negative-log IC50 (pIC50) was 4.27.

Take `Nc1ncc(-c2ccc(-c3ccccc3)cc2)n1C1CCCCCCC1`: the pIC50 was 4.64.

For the compound `CCCCCCCn1c(-c2ccc(Cl)cc2)cnc1N`, the pIC50 is 5.02.

Turning to `CCCCCCCCCn1c(-c2ccc(-c3ccccc3)cc2)cnc1N`, the pIC50 is 4.79.

Consider `CCCCCn1c(-c2ccc(Cl)cc2)cnc1N`, for which the pIC50 was 5.10.

For the compound `Cc1ccc(-c2[nH]c(N)nc2-c2ccc(Cl)cc2)cc1`, the pIC50 is 4.89.

Another assay relates to Salmonella typhimurium. In words: Antimicrobial activity against Salmonella Typhimurium ATCC 14028 assessed as inhibition of planktonic growth at 40 uM at 25 degC after 24 hrs. The class given is functional, organism-based. The conditions noted are these: Salmonella enterica subsp. enterica serovar Typhimurium.
Consider `CCCCCCCCn1c(-c2ccc([N+](=O)[O-])cc2)cnc1N`, for which the inhibition result is “Active”.

Turning to `CCn1c(-c2ccc(Cl)cc2)cnc1N`, the inhibition result was “Active”.

For the compound `CCCCCCCCCn1c(-c2ccc(-c3ccccc3)cc2)cnc1N`, the inhibition entry is “Active”.

Turning to `CCCCCn1c(-c2ccc(Cl)cc2)cnc1N`, the inhibition result is “Active”.

Take `Cc1ccc(-c2[nH]c(N)nc2-c2ccc(Cl)cc2)cc1`: the inhibition entry is “Active”.

The next assay deals with Salmonella typhimurium. In words: Antimicrobial activity against Salmonella Typhimurium ATCC 14028 assessed as inhibition of planktonic growth at 20 uM at 25 degC after 24 hrs. The class given is functional, organism-based. The note with it: Salmonella enterica subsp. enterica serovar Typhimurium.
For `CCn1c(-c2ccc(Cl)cc2)cnc1N`, the inhibition result was “inactive”.

As for `Nc1ncc(-c2ccc(-c3ccccc3)cc2)n1C1CCCCCCC1`, the inhibition entry is “Active”.

Take `CCCCCCCCCn1c(-c2ccc(-c3ccccc3)cc2)cnc1N`: the inhibition result is “inactive”.

In the case of `CCCCCn1c(-c2ccc(Cl)cc2)cnc1N`, the inhibition result was “Active”.

In the case of `Cc1ccc(-c2[nH]c(N)nc2-c2ccc(Cl)cc2)cc1`, the inhibition result is “Active”.

For another assay, the system named is Salmonella typhimurium. In words: Antimicrobial activity against Salmonella Typhimurium ATCC 14028 assessed as inhibition of planktonic growth at 10 uM at 25 degC after 24 hrs. In kind it is functional, organism-based. The note with it: Salmonella enterica subsp. enterica serovar Typhimurium.
With `CCCCCCCC[n+]1c(-c2ccc(-c3ccc([N+](=O)[O-])cc3)cc2)cn2cccnc21.[O-][Cl+3]([O-])([O-])[O-]`, the inhibition entry was “Active”.

With `CCCCCCn1c(-c2ccc(Cl)cc2)cnc1N`, the inhibition entry is “Active”.

As for `CCCCCCCCn1c(-c2ccc(SC)cc2)cnc1N`, the inhibition result was “Active”.

Turning to `CCn1c(-c2ccc(Cl)cc2)cnc1N`, the inhibition result is “inactive”.

Take `CCCCCCCn1c(-c2ccc(Cl)cc2)cnc1N`: the inhibition result was “Active”.

Take `CCCCCn1c(-c2ccc(Cl)cc2)cnc1N`: the inhibition entry is “inactive”.

Regarding `Cc1ccc(-c2[nH]c(N)nc2-c2ccc(Cl)cc2)cc1`, the inhibition result was “Active”.

The subject of a further assay is Salmonella typhimurium. In words: Antimicrobial activity against Salmonella Typhimurium ATCC 14028 assessed as inhibition of planktonic growth at 4 uM at 25 degC after 24 hrs. The class given is functional, organism-based. The conditions noted are these: Salmonella enterica subsp. enterica serovar Typhimurium.
Consider `CCCCCCCC[n+]1c(-c2ccc(-c3ccc([N+](=O)[O-])cc3)cc2)cn2cccnc21.[O-][Cl+3]([O-])([O-])[O-]`, for which the inhibition result is “Active”.

As to `CCCCCCn1c(-c2ccc(Cl)cc2)cnc1N`, the inhibition result is “Active”.

On to `CCCCCCCCn1c(-c2ccc(SC)cc2)cnc1N`, for which the inhibition entry was “inactive”.

For `CCn1c(-c2ccc(Cl)cc2)cnc1N`, the inhibition result was “inactive”.

`CCCCCCCn1c(-c2ccc(Cl)cc2)cnc1N`: the inhibition result is “inactive”.

Take `CCCCCn1c(-c2ccc(Cl)cc2)cnc1N`: the inhibition result is “inactive”.

For the compound `Cc1ccc(-c2[nH]c(N)nc2-c2ccc(Cl)cc2)cc1`, the inhibition entry is “inactive”.

In another assay the test system is Pseudomonas aeruginosa. In words: Antibiofilm activity in Pseudomonas aeruginosa assessed as inhibition of biofilm formation at 25 degC after 24 hrs. In kind it is functional, organism-based.
Details: not given
`CCCCCCCC[n+]1c(-c2ccc(-c3ccc([N+](=O)[O-])cc3)cc2)cn2cccnc21.[O-][Cl+3]([O-])([O-])[O-]`: the negative-log IC50 (pIC50) is 6.00.

With `Nc1ncc(-c2ccccc2)n1C1CCC1`, the pIC50 is 4.70.

In the case of `CCCCCCn1c(-c2ccc(Cl)cc2)cnc1N`, the pIC50 is 5.27.

Take `CCCCCCCCn1c(-c2ccc(SC)cc2)cnc1N`: the pIC50 was 5.55.

For the compound `CCCCCCCCCCCCCn1c(-c2ccc(-c3ccccc3)cc2)cnc1N`, the negative logarithm of the IC50 (pIC50) is below 3.40.

Turning to `CCCCCCCCCCCCn1c(-c2ccc(-c3ccccc3)cc2)cnc1N`, the pIC50 is below 3.40.

Regarding `CC(C)n1c(-c2ccccc2)cnc1N`, the pIC50 was 5.35.

For the compound `CCn1c(-c2ccc(Cl)cc2)cnc1N`, the pIC50 was 4.95.

As for `Nc1ncc(-c2ccc(-c3ccccc3)cc2)n1C1CCCCCCC1`, the pIC50 was 5.49.

For `CCCCCCCn1c(-c2ccc(Cl)cc2)cnc1N`, the pIC50 is 5.59.

Regarding `CCCCCCCCCn1c(-c2ccc(-c3ccccc3)cc2)cnc1N`, the pIC50 is below 3.40.

As for `CCCCCn1c(-c2ccc(Cl)cc2)cnc1N`, the pIC50 is 5.22.

For the next assay, the system named is Pseudomonas aeruginosa. In words: Antimicrobial activity against Pseudomonas aeruginosa assessed as inhibition of planktonic growth at 40 uM at 25 degC after 24 hrs. In kind it is functional, organism-based.
Details: not given
Turning to `CCCCCCCC[n+]1c(-c2ccc(-c3ccc([N+](=O)[O-])cc3)cc2)cn2cccnc21.[O-][Cl+3]([O-])([O-])[O-]`, the inhibition entry was “Active”.

For the compound `Nc1ncc(-c2ccccc2)n1C1CCC1`, the inhibition result is “inactive”.

With `CCCCCCCCCCCCCn1c(-c2ccc(-c3ccccc3)cc2)cnc1N`, the inhibition result was “inactive”.

As for `CCCCCCCCCCCCn1c(-c2ccc(-c3ccccc3)cc2)cnc1N`, the inhibition result is “inactive”.

Turning to `Nc1ncc(-c2ccc(-c3ccccc3)cc2)n1C1CCCCCCC1`, the inhibition entry is “inactive”.

A further assay concerns Pseudomonas aeruginosa. In words: Antimicrobial activity against Pseudomonas aeruginosa assessed as inhibition of planktonic growth at 10 uM at 25 degC after 24 hrs. The class given is functional, organism-based.
Details: not given
Consider `CCCCCCCC[n+]1c(-c2ccc(-c3ccc([N+](=O)[O-])cc3)cc2)cn2cccnc21.[O-][Cl+3]([O-])([O-])[O-]`, for which the inhibition result is “Active”.

On to `CCCCCCn1c(-c2ccc(Cl)cc2)cnc1N`, for which the inhibition entry is “inactive”.

On to `CCCCCCCCn1c(-c2ccc(SC)cc2)cnc1N`, for which the inhibition entry is “Active”.

For the compound `CC(C)n1c(-c2ccccc2)cnc1N`, the inhibition result is “inactive”.

Consider `CCn1c(-c2ccc(Cl)cc2)cnc1N`, for which the inhibition entry was “inactive”.

Take `Nc1ncc(-c2ccc(-c3ccccc3)cc2)n1C1CCCCCCC1`: the inhibition entry is “inactive”.

In the case of `CCCCCCCn1c(-c2ccc(Cl)cc2)cnc1N`, the inhibition entry is “Active”.

As to `CCCCCn1c(-c2ccc(Cl)cc2)cnc1N`, the inhibition result is “inactive”.

Another assay concerns Pseudomonas aeruginosa. In words: Antimicrobial activity against Pseudomonas aeruginosa assessed as inhibition of planktonic growth at 5 uM at 25 degC after 24 hrs.
Details: not given
The class given is functional, organism-based.
In the case of `CCCCCCCC[n+]1c(-c2ccc(-c3ccc([N+](=O)[O-])cc3)cc2)cn2cccnc21.[O-][Cl+3]([O-])([O-])[O-]`, the inhibition entry was “Active”.

As for `CCCCCCn1c(-c2ccc(Cl)cc2)cnc1N`, the inhibition result was “inactive”.

`CCCCCCCCn1c(-c2ccc(SC)cc2)cnc1N`: the inhibition result was “inactive”.

For `CCCCCCCCCCCCCn1c(-c2ccc(-c3ccccc3)cc2)cnc1N`, the inhibition result was “inactive”.

On to `CCCCCCCCCCCCn1c(-c2ccc(-c3ccccc3)cc2)cnc1N`, for which the inhibition result is “inactive”.

Take `CC(C)n1c(-c2ccccc2)cnc1N`: the inhibition entry is “inactive”.

Take `Nc1ncc(-c2ccc(-c3ccccc3)cc2)n1C1CCCCCCC1`: the inhibition result is “inactive”.

On to `CCCCCCCn1c(-c2ccc(Cl)cc2)cnc1N`, for which the inhibition result was “inactive”.

Turning to `CCCCCn1c(-c2ccc(Cl)cc2)cnc1N`, the inhibition result was “inactive”.

The subject of another assay is Salmonella typhimurium. In words: Antimicrobial activity against Salmonella Typhimurium ATCC 14028 assessed as inhibition of planktonic growth at 80 uM at 25 degC after 24 hrs. The class given is functional, organism-based. The note with it: Salmonella enterica subsp. enterica serovar Typhimurium.
For the compound `CCCCCCCCn1c(-c2ccc([N+](=O)[O-])cc2)cnc1N`, the inhibition result was “Active”.

As for `CCn1c(-c2ccc(Cl)cc2)cnc1N`, the inhibition result was “Active”.

Take `CCCCCCCCCn1c(-c2ccc(-c3ccccc3)cc2)cnc1N`: the inhibition entry was “Active”.

With `Cc1ccc(-c2[nH]c(N)nc2-c2ccc(Cl)cc2)cc1`, the inhibition result is “Active”.

A further assay relates to Pseudomonas aeruginosa. In words: Antimicrobial activity against Pseudomonas aeruginosa assessed as inhibition of planktonic growth at 80 uM at 25 degC after 24 hrs. The class given is functional, organism-based.
Details: not given
Regarding `Nc1ncc(-c2ccccc2)n1C1CCC1`, the inhibition entry is “inactive”.

A further assay deals with Pseudomonas aeruginosa. In words: Antimicrobial activity against Pseudomonas aeruginosa assessed as inhibition of planktonic growth at 20 uM at 25 degC after 24 hrs. In kind it is functional, organism-based.
Details: not given
Regarding `CCCCCCCC[n+]1c(-c2ccc(-c3ccc([N+](=O)[O-])cc3)cc2)cn2cccnc21.[O-][Cl+3]([O-])([O-])[O-]`, the inhibition entry is “Active”.

Consider `Nc1ncc(-c2ccccc2)n1C1CCC1`, for which the inhibition entry was “inactive”.

Regarding `CCCCCCCCn1c(-c2ccc(SC)cc2)cnc1N`, the inhibition entry was “Active”.

In the case of `CCn1c(-c2ccc(Cl)cc2)cnc1N`, the inhibition result was “inactive”.

Regarding `Nc1ncc(-c2ccc(-c3ccccc3)cc2)n1C1CCCCCCC1`, the inhibition entry is “inactive”.

Take `CCCCCn1c(-c2ccc(Cl)cc2)cnc1N`: the inhibition entry was “inactive”.
